{"source": "patent US20040235922A1", "about": "“Compositions and methods for inducing adipose tissue cell death” (priority 2003, published 2004)", "key": {"[1]": {"assay": "21 day oral (diet) treatment of mice: body weight, food intake, feed efficiency, body temperature, body composition by PIXImus densitometry (Example 1)", "format": "in vivo", "settings": "21 days, ICR mice", "protocol": "The effects of clenbuterol, a β2-AR agonist, and ractopamine, a β1/β2-AR agonist, on growth, adiposity and adipose tissue apoptosis in male and female mice have been tested by feeding diets containing control, 200 ppm clenbuterol, or 200 or 800 ppm ractopamine. Food intake (FI) was measured daily; body weight (BW) and temperatures (BT) were measured on days 0, 3, 7, 10, 14, 17, and 20. On day 21 mice were sacrificed, body composition was determined using PIXImus densitometry, and muscle and adipose tissues were collected. There were no treatment effects on BT, FI, BW, feed efficiency or body composition. Retroperitoneal (Rp) and epididymal/parametrial (Epi/Par) fat pad masses were reduced in both 800 ppm ractopamine (40±3 and 207±20 mg, respectively) and clenbuterol (35±7 and 211±22 mg) treated mice compared to control (66±8 and 319±30 mg, p<0.05). Brown adipose tissue (BAT) mass was greater (p<0.05) in clenbuterol treated mice compared to other treatments. Adipose tissue apoptosis (% DNA fragmentation) was increased in Epi/Par fat pads in clenbuterol (5.2+1.1%) and 800 ppm ractopamine (4.1±0.8%) treated mice compared to control (1.7+0.4%, p<0.05).\nAnimals: Five week old male (n=20) and female (n=20) ICR mice (Harlan Research Laboratories, Indianapolis, Ind.) were allowed to acclimate for one week prior to the experiment start date. Animals were housed singly in suspended wire cages and were provided ground rodent chow (ProLab® RMH 2500; Purina Mills, St. Louis, Mo.) and water ad libitum. Ambient room temperature was maintained and the light/dark cycle was 0600/1800 hours, respectively. Animals were cared for in accordance with the Guide for the Care and Use of Laboratory Animals (Institute of Laboratory Animal Resources Commission on Life Sciences National Research Council. Guide for the Care and Use of Laboratory Animals. National Academy of Sciences, 1996). Prior to the start of the study, animals were briefly anesthetized with isofluorane and an IPPT-200 transponder (programmable ID and temperature, BMDS, Seaford, Del.) was implanted subcutaneously between the scapulae.\nMaterials: Test articles included clenbuterol (Sigma Chemical Company, St. Louis, Mo., item # C5423) and ractopamine hydrochloride—Paylean® 9 (Elanco Animal Health, Indianapolis, Ind.). Clenbuterol is available as a pure product, and ractopamine is readily available as a type A medicated article. Paylean® 9 contains about 20 g ractopamine hydrochloride per kilogram in a ground corncob base. In order to achieve doses of 200 and 800 ppm it was necessary to add about […] of product per kilogram of diet. Control and clenbuterol diets were prepared with about 80 g of alphacel, which is a diluent used to mimic the effect of the corncob in the ractopamine product. The dose of clenbuterol used in this experiment was similar to those used in previous experiments with mice (Agbenyega E T, and Wareham A C. Effect of clenbuterol on skeletal muscle atrophy in mice induced by the glucocorticoid dexamethasone. Comp Biochem Physiol Comp Physiol 1992;102:141-145, Rothwell N. J., and Stock M J. Modification of body composition by clenbuterol in normal and dystrophic (mdx) mice. Biosci Rep 1985;5:755-760, Hyltander A, Svaninger G, and Lundholm K. The effect of clenbuterol on body composition in spontaneously eating tumour-bearing mice. Biosci Rep 1993;13:325-331, Hayes A, and Williams DA. Long-term clenbuterol administration alters the isometric contractile properties of skeletal muscle from normal and dystrophin-deficient mdx mice. Clin Exp Pharmacol Physiol 1994;21:757-765, Dupont-Versteegden EE. Exercise and clenbuterol as strategies to decrease the progression of muscular dystrophy in mdx mice. J Appl Physiol 1996;80:734-741).\nDaily Observations: Food intake was measured daily, while body weight and body temperatures were measured on days 0, 3, 7, 10, 14, 17, and 20 at approximately the same time of day (1300 hours) during the treatment period. […]"}, "[2]": {"assay": "Clenbuterol feeding for 21 days in WT and GDF-8 KO mice: body weight, weight gain, food intake, feed efficiency (Example 2)", "format": "in vivo", "settings": "200 ppm in diet", "protocol": "The effects of clenbuterol on muscularity and adiposity in male and female GDF-8 knockout (GDF-8 KO) (n=20) and wild type (WT) mice (n=20) were tested by feeding 0 or 200 ppm clenbuterol for 21 days. […] For all other variables, GDF-8 KO and WT mice responded similarly to clenbuterol.\nAnimals: Twelve-week old male (n=10) and female (n=10) GDF-8 (−/−) knockout mice and male (n=10) and female (n=10) GDF-8 (+/+) WT mice were used in the study. GDF-8 knockout mice, which were derived from the 129/SvJ mouse strain, were originally obtained from MetaMorphix Inc. and were bred in-house for the study. Mice were housed singly in suspended wire cages in a room maintained at 22±1 C and with a 12:12 hour light/dark cycle. Mice were provided ground rodent chow (ProLab® RMH 2500; Purina Mills, St. Louis, Mo.) and water ad libitum. Mice were cared for in accordance with the Guide for the Care and Use of Laboratory Animals.\nMaterials: Clenbuterol (Sigma Chemical Company, St. Louis, Mo., item# C5423), was thoroughly mixed into the ground rodent chow to provide a 200 ppm concentration.\nDaily Observations: Food intake was measured daily, and body weight was measured on days 0, 3, 7, 10, 14, 17, 20, and 21 at approximately 1430 h during the treatment period. At 15 weeks of age (day 21), a final body weight measurement was obtained approximately one hour prior to euthanasia, and mice were sacrificed by decapitation following CO2 asphyxiation.\nStatistical Analysis: The study was analyzed as a 2×2×2 factorial design (N=5/cell). Analysis of variance (SAS) was used to determine significance of main effects of gender, genotype (WT vs. GDF-8 KO) and clenbuterol (0 vs. 200 ppm) and interactions. Statistically significant differences are defined at the 95% confidence interval.\nFeed efficiency was calculated as the total food intake (g)/cumulative weight gain (g). There was a trend (p=0.07) for clenbuterol to improve feed efficiency (g feed/g weight gain) (Table 3)."}, "mouse adipocytes": {"system": "mouse adipocytes", "settings": "in vitro; cited from earlier work"}, "[3]": {"settings": "WT and GDF-8 KO mice, main effect, Mean ± SEM"}}, "note": "“Also recorded” adds a separate entry of the source."}
{"compound": "CC(C)(C)NCC(O)c1cc(Cl)c(N)c(Cl)c1", "note": "(stereo not shown) [Clenbuterol, clenbuterol]", "values": [{"measurement": "Cumulative Feed Intake", "setting": "[1]; 200 ppm in diet", "result": 6.10, "unit": "g"}, {"measurement": "Densitometry Bone Mineral Content", "setting": "[1]; 200 ppm in diet", "result": 0.65, "unit": "g"}, {"measurement": "Densitometry Fat", "setting": "[1]; 200 ppm in diet", "result": 2.81, "unit": "g"}, {"measurement": "Densitometry Lean", "setting": "[1]; 200 ppm in diet", "result": 26.80, "unit": "g"}, {"measurement": "Feed Efficiency", "setting": "[1]; 200 ppm in diet", "result": 14.4}, {"measurement": "Final Body Weight", "setting": "[1]; 200 ppm in diet", "result": 32.1, "unit": "g"}, {"measurement": "Weight Gain", "setting": "[1]; 200 ppm in diet", "result": 8.90, "unit": "g"}, {"measurement": "Effect on body temperature, food intake, body weight, feed efficiency, body composition", "setting": "[1]; diet", "result": "not significantly affected; also recorded: Neither clenbuterol nor ractopamine affected"}, {"measurement": "Effect on final body weight (FBW)", "setting": "[2]", "result": "did not significantly affect"}, {"measurement": "Food Intake", "setting": "[2]; [3]", "result": "4.78 ± 0.16", "unit": "g/day"}, {"measurement": "Wt Gain", "setting": "[2]; [3]", "result": "0.165 ± 0.01", "unit": "g/day"}, {"measurement": "Feed Efficiency", "setting": "[2]; WT and GDF-8 KO mice, main effect, p = 0.07", "result": 34.4, "unit": "g feed/g wt gain"}, {"measurement": "Effect on food intake, body weight or body composition", "setting": "[2]; WT or GDF-8 KO mice", "result": "did not affect"}, {"measurement": "Final Body Wt", "setting": "[2]; female and male WT and GDF-8 KO mice, main effect, Mean ± SEM", "result": "29.9 ± 1.2", "unit": "g"}, {"measurement": "Feed efficiency in females compared to control", "setting": "[2]; female mice", "result": "no effect; also recorded: not in females"}, {"measurement": "Weight gain in females compared to control", "setting": "[2]; female mice", "result": "not in females"}, {"measurement": "Weight gain compared to control", "setting": "[2]; main effect, p<0.05", "result": "increased"}, {"measurement": "Feed efficiency in males compared to control", "setting": "[2]; male mice", "result": "more than doubled; also recorded: significantly improved"}, {"measurement": "More efficient (feed efficiency) compared to males fed control diet", "setting": "[2]; male mice", "result": "more than 250%"}, {"measurement": "Weight gain in males compared to control", "setting": "[2]; male mice", "result": "significantly increased; also recorded: twice as much"}, {"measurement": "Insulin-induced lipolysis in mouse adipocytes", "setting": "mouse adipocytes", "result": "inhibited"}, {"measurement": "Lipolysis in mouse adipocytes", "setting": "mouse adipocytes", "result": "stimulated"}]}
